Measured values taken from paper PMC5503984, “Characterisation of preproendothelin-1 derived peptides identifies Endothelin-Like Domain Peptide as a modulator of Endothelin-1” (Scientific Reports, 2017).

Columns and labels:
[1] = Clearance of proET-1 peptides after i.v. bolus in anaesthetised rats; format: in vivo, rat
Protocol: To examine whether circulating half-lives influenced plasma levels of proET-1 peptides clearance rates were investigated in anaesthetised rats. […] Based on a circulating blood volume of 7.2 ± 0.3 ml per 100 g body weight, a mean weight of 345 ± 6 g and hematocrit of 40–60%, the hypothetical maximum plasma concentrations were 23–35 pmol/ml. However, the levels of NT-proET-1, ELDP and CT-proET-1 30 s after injection were 0.29 ± 0.02, 3.65 ± 0.23, and 11.74 ± 0.64 pmol/ml, respectively. Relative to estimates for dilution in circulating blood, these values represent ≈1%, 10–16%, and 34–51% of administered peptide for NT-proET-1, ELDP and CT-proET-1. Moreover, NT-proET-1 was almost completely cleared from the circulation in <5 min (estimated initial t½ < 20 s).
Figure 5 Comparison of clearance rates of NT-proET-1, ELDP and CT-proET-1 in anaesthetised rats. A bolus dose containing 1 nmol/kg of each proET-1 peptide as a combined solution prepared in 0.9% saline/0.1% BSA was administered i.v. and heparinised arterial blood samples (0.5 ml) were collected at 0.5, 1, 2, 5, 10, 20 and 40 min after administration of proET-1 peptides. NT-proET-1 (mauve circles), ELDP (red circles) and CT-proET-1 (blue circles) were measured by magnetic bead-based multiplex assays using Luminex methodology (values are mean ± SD, except where SD is less than the symbol size).
A multiplexed immunoassay system was used for simultaneous measurement of NT-proET-1, ELDP and CT-proET-1 in small volumes of rat plasma. Capture antibodies were conjugated to magnetic beads (region 45 – NT-proET-1, region 36 – ELDP, and region 27 – CT-proET-1) following standard protocols (Luminex Corporation). For assay capture antibody-coated magnetic beads were diluted as a premixed combination (10 µl/well) and incubated overnight at 4 °C on an orbital plate mixer with plasma (15 µl) and assay buffer (135 µl). For detection, beads were washed using a ring magnet plate washer before adding 25 µl of combined biotinylated detection antibodies and incubating for 2 h at room temperature on an orbital plate mixer.
All experiments were conducted according to the Animals (Scientific Procedures) Act 1986, UK, and approved by the UK Home Office. Clearance rates of proET-1 peptides and blood pressure effects of ELDP were determined in male Wistar rats (Charles River) anaesthetised with sodium thiopentone (120 mg/kg i.p.). Peptides were administered i.v. via a polyethylene catheter in the left femoral vein. Blood samples (0.5 ml) were collected from a catheter in the left carotid artery into chilled 1.5 ml microcentrifuge tubes containing 50 U/5 µl of heparin. Samples were centrifuged at 12,000 rpm for 2 min at 4 °C. Plasma (50 µl aliquots) samples were stored at −80 °C for subsequent analyses. Blood pressure and heart rate were recorded from the left carotid artery via a polyethylene catheter using Labchart 7.1 (AD Instruments Ltd).

[2] = RP-HPLC elution position of synthetic proET-1 peptides; format: physicochemical; conditions: ACE-5 C4 300 Å, 5 µm, 4.6 × 250 mm, 1 ml/min, 0.1% TFA – 10% solvent B (80% CH3CN with 0.1% TFA) over 2 min, then 10–30% B over 50 min, 1 min fractions, absorbance at 280 nm and immunoassay
Protocol: Figure 2 Size exclusion chromatography of peptide precipitates from (A) EA.hy 926 and (B) A549 cell lines, (C) cation exchange chromatography of conditioned media from EA.hy 926, and HPLC characterisation of pro-ET-1 peptides from EA.hy 926 cells – (D) NT-proET-1, (E) ELDP and (F) CT-proET-1. (A) and (B) proendothelin-1 peptides from EA.hy 926 and A549 cell lines were subjected to size exclusion chromatography (column 1.6 × 100 cm, Sephadex G50 superfine) equilibrated at 4 °C with 0.1 M NaCl containing 0.01 M HCl. Fractions were subjected to immunoassay for ppET-1[42–50] (open circles) and ppET-1[93–102] (closed circles). Elution positions of adrenomedullin (ADM, M r 6029), big ET-1 (bET-1, M r 4283) and ET-1 (M r 2492) are indicated. […] ELDP (red columns) and CT-proET-1 (blue columns) were measured using immunoassays. […]
ProET-1 peptides were subjected to reverse phase HPLC on C4 silica (15 µm, 300 Å pore, 1 × 25 cm; Jupiter® Phenomenex) with gradient elution at 2 ml/min: 0.1% TFA – 15% solvent B (80% CH3CN with 0.1% TFA) over 2 min, followed by 15–60% B over 45 min. […] Synthetic peptides were used to characterise elution positions of NT-proET-1, ELDP and CT-proET-1 on this second HPLC system by monitoring absorbance at 280 nm and immunoassay of fractions. […]

[3] = rat, 1 nmol/kg i.v. bolus, plasma sampled 0.5–40 min, two-phase clearance

plasma level 30 s after injection ([1]; anaesthetised male Wistar rats, bolus 1 nmol/kg i.v. of each peptide as a combined solution in 0.9% saline/0.1% BSA, arterial plasma, Luminex multiplex immunoassay, mean ± SD): 3.65 ± 0.23 nM | estimated t½, phase 1 [1, 3]: 0.5 min | estimated t½, phase 2 [1, 3]: 5.7 min | plasma level at 30 s as % of administered peptide, relative to estimates for dilution in circulating blood ([1]; rat, 1 nmol/kg i.v., hypothetical maximum plasma concentration 23–35 pmol/ml): 10–16% | elution position on RP-HPLC (fraction number) [2]: 45 fraction
Sequence: ALENLLPTKATDRENRCQCASQKDKKCWNFCQAGKELRAEDIMEKDWNNHKKGKDCSKLGKKCIYQQLVRGRKI (disulfide (positions not given here)) [ELDP]
